The source of these data is ChEMBL document CHEMBL3414469, “Targeting DNA methylation with small molecules: what's next?” (J Med Chem, 2015).

One series deals with DNMT3A2/3L complex (Homo sapiens, UniProt Q9Y6K1). The experiment in a line: Inhibition of His6-tagged human recombinant DNMT3A/DNMT3L expressed in insect Sf9 cells assessed as reduction in DNA methyltransferase activity using 5'-biotinylated 45-bp unmethylated or hemimethylated oligonucleotide substrates and [3H]-AdoMet by liquid scintillation counting method.
The target in series [1] is DNA (cytosine-5)-methyltransferase 3B (Homo sapiens, UniProt Q9UBC3). The experiment in a line: Inhibition of His6-tagged human recombinant DNMT3b expressed in insect Sf9 cells assessed as reduction in DNA methyltransferase activity using 5'-biotinylated 45-bp unmethylated or hemimethylated oligonucleotide substrates and [3H]-AdoMet by liquid scintillation counting method.

Series [2] addresses DNA (cytosine-5)-methyltransferase 1 (Homo sapiens, UniProt P26358). The experiment in a line: Inhibition of His6-tagged human recombinant DNMT1 expressed in insect Sf9 cells assessed as reduction in DNA methyltransferase activity using 5'-biotinylated 45-bp unmethylated or hemimethylated oligonucleotide substrates and [3H]-AdoMet by liquid scintillation counting method.
For series [3], the target named is DNA (cytosine-5)-methyltransferase 3A (Homo sapiens, UniProt Q9Y6K1). The experiment in a line: Inhibition of His6-tagged human recombinant DNMT3a expressed in insect Sf9 cells assessed as reduction in DNA methyltransferase activity using 5'-biotinylated 45-bp unmethylated or hemimethylated oligonucleotide substrates and [3H]-AdoMet by liquid scintillation counting method.

Series [4] is described as follows: Half life in sc dosed patient with myelodysplastic syndrome. To be noted: human, in vivo.
Series [5] can be described thus: Half life in patient with myelodysplastic syndrome dosed via infusion. The class given is ADME, organism-based. The settings on record: human, in vivo, iv.

Structures are written as SMILES.

DNA (cytosine-5)-methyltransferase 1, sequence (P26358 whole entry): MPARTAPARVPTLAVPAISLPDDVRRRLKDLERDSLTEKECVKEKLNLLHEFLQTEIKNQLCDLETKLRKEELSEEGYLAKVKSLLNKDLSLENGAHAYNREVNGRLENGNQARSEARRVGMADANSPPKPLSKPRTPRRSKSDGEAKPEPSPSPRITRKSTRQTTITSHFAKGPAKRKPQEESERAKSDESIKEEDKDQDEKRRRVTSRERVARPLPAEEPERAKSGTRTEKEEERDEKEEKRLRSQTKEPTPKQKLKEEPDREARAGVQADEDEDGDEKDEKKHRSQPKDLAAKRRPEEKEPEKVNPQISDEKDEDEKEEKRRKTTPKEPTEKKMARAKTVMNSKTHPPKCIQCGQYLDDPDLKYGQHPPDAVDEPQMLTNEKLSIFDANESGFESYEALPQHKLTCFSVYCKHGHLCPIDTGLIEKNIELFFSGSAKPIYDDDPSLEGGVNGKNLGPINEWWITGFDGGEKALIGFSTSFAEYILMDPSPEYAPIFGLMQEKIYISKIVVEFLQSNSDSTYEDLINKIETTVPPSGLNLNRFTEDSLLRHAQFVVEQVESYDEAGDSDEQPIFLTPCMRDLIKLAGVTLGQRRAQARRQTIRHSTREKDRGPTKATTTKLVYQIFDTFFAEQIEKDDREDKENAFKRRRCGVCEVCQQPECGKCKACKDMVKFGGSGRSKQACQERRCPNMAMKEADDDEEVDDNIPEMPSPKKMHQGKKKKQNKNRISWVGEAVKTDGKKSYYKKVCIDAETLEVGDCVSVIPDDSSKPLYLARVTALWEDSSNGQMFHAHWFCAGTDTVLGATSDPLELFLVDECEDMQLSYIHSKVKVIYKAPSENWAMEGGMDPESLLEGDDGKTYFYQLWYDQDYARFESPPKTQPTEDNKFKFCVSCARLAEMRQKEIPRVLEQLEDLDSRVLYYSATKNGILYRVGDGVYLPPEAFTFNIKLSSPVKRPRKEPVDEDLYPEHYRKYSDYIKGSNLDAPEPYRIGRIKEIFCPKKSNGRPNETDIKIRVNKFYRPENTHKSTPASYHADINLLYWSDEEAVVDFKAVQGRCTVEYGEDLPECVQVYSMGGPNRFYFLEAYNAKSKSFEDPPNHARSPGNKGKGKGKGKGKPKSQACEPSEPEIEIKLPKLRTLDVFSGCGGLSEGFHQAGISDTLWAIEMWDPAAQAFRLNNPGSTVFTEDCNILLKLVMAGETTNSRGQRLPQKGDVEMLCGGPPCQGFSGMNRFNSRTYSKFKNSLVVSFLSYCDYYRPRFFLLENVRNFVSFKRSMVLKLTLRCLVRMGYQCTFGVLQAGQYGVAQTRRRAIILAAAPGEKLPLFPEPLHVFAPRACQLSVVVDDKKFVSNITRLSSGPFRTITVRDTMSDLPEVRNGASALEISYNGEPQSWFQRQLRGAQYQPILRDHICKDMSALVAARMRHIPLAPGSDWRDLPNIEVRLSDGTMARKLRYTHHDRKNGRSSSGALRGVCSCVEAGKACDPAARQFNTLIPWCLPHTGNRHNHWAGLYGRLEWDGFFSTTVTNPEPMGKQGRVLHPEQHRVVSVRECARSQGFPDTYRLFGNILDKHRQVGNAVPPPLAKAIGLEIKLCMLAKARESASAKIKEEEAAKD
DNMT3A2/3L complex, sequence (Q9Y6K1 whole entry, looked up, one chain of several): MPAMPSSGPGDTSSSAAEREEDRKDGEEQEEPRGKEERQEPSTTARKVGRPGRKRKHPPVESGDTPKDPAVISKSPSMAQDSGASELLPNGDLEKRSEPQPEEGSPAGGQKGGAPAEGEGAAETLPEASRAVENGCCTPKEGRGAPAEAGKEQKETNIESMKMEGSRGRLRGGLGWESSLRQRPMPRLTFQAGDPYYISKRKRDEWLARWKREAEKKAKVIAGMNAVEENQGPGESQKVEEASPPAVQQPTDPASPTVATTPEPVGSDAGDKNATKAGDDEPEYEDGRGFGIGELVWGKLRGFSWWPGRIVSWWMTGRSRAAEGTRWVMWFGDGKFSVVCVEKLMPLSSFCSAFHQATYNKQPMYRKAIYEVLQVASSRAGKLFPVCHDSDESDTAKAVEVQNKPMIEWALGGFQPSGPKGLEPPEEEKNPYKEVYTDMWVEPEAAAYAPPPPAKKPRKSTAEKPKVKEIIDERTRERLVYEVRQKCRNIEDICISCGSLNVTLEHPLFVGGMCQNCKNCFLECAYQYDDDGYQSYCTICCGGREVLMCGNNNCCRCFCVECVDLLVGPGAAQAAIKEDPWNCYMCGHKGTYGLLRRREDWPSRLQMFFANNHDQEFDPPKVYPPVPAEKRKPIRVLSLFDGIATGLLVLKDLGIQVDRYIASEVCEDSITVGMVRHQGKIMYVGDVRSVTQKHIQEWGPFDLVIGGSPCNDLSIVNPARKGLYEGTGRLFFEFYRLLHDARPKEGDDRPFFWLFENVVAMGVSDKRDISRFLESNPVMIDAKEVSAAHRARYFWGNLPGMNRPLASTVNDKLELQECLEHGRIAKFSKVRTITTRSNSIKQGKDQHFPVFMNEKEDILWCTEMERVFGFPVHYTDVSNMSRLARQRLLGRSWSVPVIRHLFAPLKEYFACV
DNA (cytosine-5)-methyltransferase 3A, sequence (Q9Y6K1 whole entry, looked up): as the sequence (Q9Y6K1 whole entry, looked up, one chain of several) above

Regarding `O=C(O)[C@H](Cc1c[nH]c2ccccc12)N1C(=O)c2ccccc2C1=O`, the IC50 (commonly the concentration that gives 50% inhibition) at DNMT3A2/3L complex was 315 µM.

On to `Cc1cc(Nc2ccc(NC(=O)c3ccc(Nc4ccnc5ccccc45)cc3)cc2)nc(N)n1`, for which the IC50 in series [1] worked out at 7.5 µM.

As to `CCN(CC)CCNC(=O)c1ccc(NCCCCCCCCCCCCN2C(=O)c3ccccc3C2=O)cc1`, the figures for the IC50 (in series [2]; at DNMT3A2/3L complex) were 4 µM and 21 µM, respectively.

For `O=C(O)[C@H](Cc1c[nH]c2ccccc12)N1C(=O)C=CC1=O`, in series [2], the IC50 was 20 µM.

As to `O=[N+]([O-])c1cc(S(=O)(=O)Nc2ccc(O)c3ccccc23)ccc1Cl`, the IC50 in series [3] was found to be 38 µM; in series [2] it was 1.2 µM.

On to `O=[N+]([O-])c1ccc(C2=NC[C@H](CN3CCCC3)O2)cc1`, for which the IC50 in series [2] is 150 µM.

`Nc1ncn([C@@H]2O[C@H](CO)[C@@H](O)[C@H]2O)c(=O)n1` [AZACITIDINE]: the half-life (in general, the time in which the quantity being followed falls by half) in series [4] was 41 min.

`Nc1ncn([C@H]2C[C@H](O)[C@@H](CO)O2)c(=O)n1` [DECITABINE] showed a half-life in series [5] of 10 min.

`O=C1C(Cl)=C(Cl)C(=O)c2ccccc21` [Dichlon]: the concentration for half-maximal inhibition (IC50) is 1.6 µM in series [2] and 0.5 µM on DNMT3A2/3L complex.

Take `O=C(O[C@@H]1Cc2c(O)cc(O)cc2O[C@@H]1c1cc(O)c(O)c(O)c1)c1cc(O)c(O)c(O)c1` [EPIGALOCATECHIN GALLATE]: the IC50 in series [2] was determined as 0.5 µM.

Consider `O=c1c(-c2ccc(O)cc2)coc2cc(O)cc(O)c12` [GENISTEIN], for which the IC50 is 30 µM in series [2] and above 100 µM on DNMT3A2/3L complex.

As to `C[C@@H]1O[C@@H](CC(=O)O)CC2=C1C(=O)c1c(O)cccc1C2=O` [NANAFROCIN], in series [1], the IC50 came out at 0.5 µM.

`CCN(CC)CCNC(=O)c1ccc(N)cc1` [PROCAINAMIDE]: the IC50 is above 500 µM in series [2] and above 300 µM at DNMT3A2/3L complex.
